Laboratory results taken from patent US20080058373A1, “Compositions and Methods for Treating or Preventing Glaucoma or Progression Thereof” (priority 2006, published 2008).
Values joined by “and” are separate entries in the source; they are usually repeats but may differ in a detail not shown here. Identical values can stand only once.

Experiments:
[1] = test system: rabbit eye (anterior chamber paracentesis); assay: Clinical evaluation by slit lamp (clinical score), rabbit paracentesis model; assay type: in vivo; parameters: key to Clinical Score −180 min / Clinical Score −5 min / Clinical Score +115 min: 0=normal; 1=discrete dilatation of iris and conjunctival vessels; 2=moderate dilatation of iris and conjunctival vessels; 3=intense iridal hyperemia with flare in the anterior chamber; 4=intense iridal hyperemia with flare in the anterior chamber and presence of fibrinous exudates; settings: for Clinical Score −5 min: 5 min before the first paracentesis; for Clinical Score −5 min / Clinical Score +115 min / Clinical Score −180 min: single eyes; for Clinical Score +115 min: 5 min before the second paracentesis
[2] = test system: New Zealand White rabbits; assay: Ophthalmic observations (slit lamp, McDonald Shadduck system) in the rabbit IOP study; assay type: in vivo; parameters: key to Cornea Score: 1: Some loss of transparency. Only the epithelium and/or the anterior half of the stoma are involved. The underlying structures are clearly visible although some cloudiness may be readily apparent; key to Conjunctival congestion Score: A flushed, reddish color predominantly confined to the palpebral conjunctiva with some perilimbal injection but primarily confined to the lower and upper parts of the eye from the 4:00 to 7:00 and 11:00 to 1:00 positions; key to Ophthalmic Observation (Slit-Lamp): AN: Appeared normal
Protocol: Prior to placement on study, each animal underwent a pre-treatment ophthalmic examination (slit lamp and indirect ophthalmoscopy). Observations were scored according to the McDonald Shadduck system and recorded using a standardized data collection sheet.
Ophthalmic examinations (slit lamp) were performed prior to the first dosing on Days 5, 12, 22, 26, and 33. Ocular findings were scored according to the McDonald Shadduck system and recorded using a standardized data collection sheet.

[3] = test system: primary human corneal epithelial cells; assay: IL-1β-stimulated cytokine production in primary HCECs (30-cytokine Luminex kit)
Protocol: Primary HCECs were seeded in 24-well plates. […] Each treatment was performed in triplicate. Media were collected and used for determination of cytokine content using a 30-cytokine Luminex kit. Cell viability was determined by alamarBlue assay (LP06013).
Median fluorescence intensity (MFI) was used to obtain the concentration of each cytokines in pg/ml based on the standard curve of each cytokine assayed by Luminex. The linear range of the standard curve for each cytokine was used for determination of cytokine concentration. Duplicate values for each sample were averaged. Data were expressed as mean±SD. Statistical analysis was performed using one-way ANOVA-Dunnett's test, and P<0.05 was considered statistically significant.

[4] = test system: New Zealand White rabbits; assay: Mortality/morbidity in the rabbit IOP study; assay type: in vivo; settings: for Day of Death (day euthanized or found dead) / Recorded Notes (mortality): individual rabbits; for Mortality (animals found dead or euthanized prior to study completion/number of animals in group): topical right eye 4 × daily, Day 33; for Mortality: rabbits that died or were euthanized between Days 11 and 33: right eye four times daily, Days 1-31
Protocol: On Days 1-31, animals received daily topical doses of the appropriate test article into the right eye. Animals were dosed four times per day, with doses administered 2 hours apart. Doses were administered using a calibrated 50-μL pipette. The eyelids were held close for 10 seconds immediately following dosing. The time of each dose administration was recorded.
Animals determined to be moribund were euthanized with an intravenous injection of commercial euthanasia solution.

Prostaglandin E2 (PGE2) = Prostaglandin E2 (PGE2) measurement in aqueous humor, rabbit paracentesis model; assay type: in vivo; settings: second paracentesis, group mean
Protocol: (§1) Each rabbit was placed in a restraint device and tagged with the alphanumeric code. The formulations were instilled (50 μl) into the conjunctival sac of both eyes 180, 120, 90 and 30 min before the first paracentesis; then 15, 30, 90 min after the first paracentesis. To perform the first paracentesis the animals were anaesthetized by intravenous injection of 5 mg/kg Zoletil® (Virbac; 2.5 mg/kg tiletamine HCl and 2.5 mg/kg zolazepam HCl) and one drop of local anesthetic (Novesina®, Novartis) was administered to the eye. Anterior chamber paracentesis was performed with a 26 G needle attached to a tuberculin syringe; the needle was introduced into the anterior chamber through the cornea, taking care not to damage the tissues. Two hours after the first paracentesis, the animals were sacrificed with 0.4 ml Tanax® (Intervet International B.V.) and the second paracentesis was performed. About 100 μl of aqueous humor were removed at the second paracentesis. Aqueous humor was immediately split in four aliquots and stored at −80° C. until analysis. Then both eyes were enucleated and the iris-ciliary body was carefully excised, placed in polypropylene tubes, and stored at −80° C. until analysis.
For the quantitative determination of PGE2 in the aqueous humor we used the PGE2 Immunoassay kit (R&D Systems; Cat.No. KGE004; Lot.No. 240010). Eleven microliters or 16 μl of aqueous humor were diluted to 110 μl or 160 μl with the calibrator diluent solution provided with the kit. One hundred microliters of samples and of standards were load into a 96-well plate and recorded in a plate layout. Samples were treated following the assay procedure described in the kit. A microplate reader (GDV, Italy; model DV 990 B/V6) set at 450 nm (wavelength correction at 540 nm) was used for making the calibration and analyzing the samples.

protein in aqueous humor = assay: Protein measurement in aqueous humor, rabbit paracentesis model; assay type: in vivo; settings: for Protein levels in aqueous humor, Mean: second paracentesis, group mean
Protocol: as §1
For protein concentration determination in the aqueous humor we used the Protein Quantification Kit (Fluka; Cat.No. 77371; Lot.No. 1303129). Five microliters of aqueous humor were diluted to 100 μl with water. Twenty microliters of samples and of standards were load into a 96-well plate and recorded in a plate layout. Samples were treated following the assay procedure described in the kit. A microplate reader (GDV, Italy; model DV 990 B/V6) set at 670 nm was used for making the calibration and analyzing the samples.

[5] = 0.1% topical, +115 min, N=8 eyes
[6] = 0.5% topical, +115 min, N=8 eyes
[7] = 10 mg/g, treated right eye, Day 5
[8] = 10 ng/ml IL-1β-stimulated HCECs, 18 h, P<0.05
[9] = IL-1β-stimulated HCECs, 18 h, P<0.05
[10] = 1 mg/g (0.05 mg/dose) 4 × daily, Group D
[11] = 10 mg/g (0.5 mg/dose) 4 × daily, Group B

With `Cc1ccc2c(NCC(O)(CC(C)(C)c3cc(F)cc4c3OCC4)C(F)(F)F)cccc2n1` (centres unmarked) the “Clinical Score −5 min” value ([1]; 0.1% topical) was 0, the “Clinical Score +115 min” value ([1]; 0.1% topical, listed as BOL) was 2 and 3 and the “Percentage of eyes with clinical score 2” value [1, 5] was 75%. For the same compound, the “Percentage of eyes with clinical score 3” value [1, 5] was 25%, the “Percentage of eyes with clinical score 0” value ([1]; 0.1% topical, −5 min, N=8 eyes) was 100% and the “Percentage of eyes with clinical score 0” value ([1]; 0.1% topical, −180 min (basal), N=8 eyes) was 100%. For the same compound, the “Clinical Score −180 min” value ([1]; 0.1% topical, −180 min (basal)) was 0, the “Clinical Score −5 min” value ([1]; 0.5% topical) was 0 and the “Clinical Score +115 min” value ([1]; 0.5% topical, listed as BOL) was 2 and 1. The “Percentage of eyes with clinical score 1” value [1, 6] was 37.5%, the “Percentage of eyes with clinical score 2” value [1, 6] was 62.5% and the “Percentage of eyes with clinical score 0” value ([1]; 0.5% topical, −5 min, N=8 eyes) was 100%. The “Percentage of eyes with clinical score 0” value ([1]; 0.5% topical, −180 min (basal), N=8 eyes) was 100%, the “Clinical Score −180 min” value ([1]; 0.5% topical, −180 min (basal)) was 0 and the “Clinical Score −5 min” value ([1]; 1% topical) was 0. For the same compound, the “Clinical Score +115 min” value ([1]; 1% topical) was 2, the “Percentage of eyes with clinical score 2” value ([1]; 1% topical, +115 min, N=8 eyes) was 100% and the “Percentage of eyes with clinical score 0” value ([1]; 1% topical, −5 min, N=8 eyes) was 100%. The “Percentage of eyes with clinical score 0” value ([1]; 1% topical, −180 min (basal), N=8 eyes) was 100%, the “Clinical Score −180 min” value ([1]; 1% topical, −180 min (basal)) was 0 and the “Slit-lamp ocular findings (other findings)” value ([2]; 1 mg/g suspension, dosed right eye (Group D, No. 3043)) was “a subconjunctival hemorrhage”. The “Ophthalmic Observation (Slit-Lamp)” value ([2]; 1 mg/g, treated right eye, Day 5, 12, 22, 26) was “AN”, the “Ophthalmic Observation (Slit-Lamp)” value ([2]; 1 mg/g, treated right eye, Day 5, 12, 22, 26, 33) was “AN” and the “Ophthalmic Observation (Slit-Lamp)” value ([2]; 1 mg/g, treated right eye, Day 5, 12, 26, 33) was “AN”. For the same compound, the “Conjunctival congestion Score” value ([2]; 1 mg/g, treated right eye, Day 22) was 1, the “Conjunctival congestion Score” value ([2]; 5 mg/g, treated right eye, Day 5) was 1 and the “Ophthalmic Observation (Slit-Lamp)” value ([2]; 5 mg/g, treated right eye, Day 5, 12) was “AN”. The “Ophthalmic Observation (Slit-Lamp)” value ([2]; 5 mg/g, treated right eye, Day 5, 12, 22) was “AN”, the “Ophthalmic Observation (Slit-Lamp)” value ([2]; 5 mg/g, treated right eye, Day 5, 12, 22, 26, 33) was “AN” and the “Ophthalmic Observation (Slit-Lamp)” value ([2]; 5 mg/g, treated right eye, Day 5, 12, 26, 33) was “AN”. The “Ophthalmic Observation (Slit-Lamp)” value ([2]; 5 mg/g, treated right eye, Day 5, 12, 33) was “AN”, the “Ophthalmic Observation (Slit-Lamp)” value ([2]; 5 mg/g, treated right eye, Day 12, 22, 26, 33) was “AN” and the “Conjunctival congestion Score” value ([2]; 5 mg/g, treated right eye, Day 22) was 1. The “Conjunctival congestion Score” value ([2]; 5 mg/g, treated right eye, Day 22, 26) was 1, the “Conjunctival congestion Score” value ([2]; 5 mg/g, treated right eye, Day 26) was 1 and the “Slit-lamp ocular findings (other findings)” value ([2]; 10 mg/g suspension, dosed right eye (Group B, No. 3083)) was “a pinpoint corneal scar”. The “Ophthalmic Observation (Slit-Lamp)” value [2, 7] was “AN”, the “Surface area of cornea involvement Score” value [2, 7] was 1 (1-25% area of stromal cloudiness.) and the “Conjunctival congestion Score” value ([2]; 10 mg/g, treated right eye, Day 5, 12) was 1. The “Ophthalmic Observation (Slit-Lamp)” value ([2]; 10 mg/g, treated right eye, Day 5, 12, 22, 26, 33) was “AN”, the “Ophthalmic Observation (Slit-Lamp)” value ([2]; 10 mg/g, treated right eye, Day 5, 12, 22, 33) was “AN” and the “Ophthalmic Observation (Slit-Lamp)” value ([2]; 10 mg/g, treated right eye, Day 5, 22, 26, 33) was “AN”. The “Cornea Score” value ([2]; 10 mg/g, treated right eye, Day 5, pinpoint corneal scar) was 1^(2), the “Conjunctival congestion Score” value ([2]; 10 mg/g, treated right eye, Day 12) was 1 and the “Ophthalmic Observation (Slit-Lamp)” value ([2]; 10 mg/g, treated right eye, Day 12, 22, 26, 33) was “AN”. The “Ophthalmic Observation (Slit-Lamp)” value ([2]; 10 mg/g, treated right eye, Day 22, 26, 33) was “AN”, the “Conjunctival congestion Score” value ([2]; 10 mg/g, treated right eye, Day 26) was 1 and the “Concentration at which a significant inhibitory effect was observed on IL-6” value [3, 8] was 1 nM. The “Concentration at which a significant inhibitory effect was observed on MCP-1” value [3, 8] was 10 nM, the “Concentration at which a significant inhibitory effect was observed on TGF-α” value [3, 8] was 10 nM and the “Concentration at which a significant inhibitory effect was observed on TNF-α” value [3, 8] was 10 nM. For the same compound, the “Potency versus dexamethasone for inhibition of G-CSF production” value ([3]; IL-1β-stimulated HCECs) was “more potent than dexamethasone”, the “Potency versus dexamethasone for inhibition of GM-CSF, IL-8 and RANTES production” value ([3]; IL-1β-stimulated HCECs) was “somewhat less potent than dexamethasone” and the “Potency versus dexamethasone for inhibition of IL-6, IL-7, TGF-α, TNF-α, VGEF and MCP-1 production” value ([3]; IL-1β-stimulated HCECs) was “comparable potency”. The “Inhibition of IL-1β-stimulated production of 6 cytokines (IL-6, IL-7, MCP-1, TGF-α, TNF-α and VEGF)” value ([3]; IL-1β-stimulated HCECs, 18 h) was “significantly inhibited”, the “Concentration at which a significant inhibitory effect was observed on G-CSF” value [3, 9] was 10 µg/mL and the “Concentration at which a significant inhibitory effect was observed on GM-CSF” value [3, 9] was 10 nM. The “Concentration at which a significant inhibitory effect was observed on RANTES” value [3, 9] was “no significant effect”, the “Day of Death (day euthanized or found dead)” value [4, 10] was 29 and the “Recorded Notes (mortality)” value [4, 10] was “Found dead”. The “Mortality (animals found dead or euthanized prior to study completion/number of animals in group)” value ([4]; 1 mg/g, 0.05 mg/dose) was 1/10^(6), the “Mortality: rabbits that died or were euthanized between Days 11 and 33” value ([4]; 5 mg/g suspension ([…])) was “two of ten” and the “Mortality (animals found dead or euthanized prior to study completion/number of animals in group)” value ([4]; 5 mg/g, […]) was 2/10^(5). The “Day of Death (day euthanized or found dead)” value [4, 11] was 11, the “Recorded Notes (mortality)” value [4, 11] was “Found dead. Noted on Day 9 to have significant diarrhea and” and the “Mortality: rabbits that died or were euthanized between Days 11 and 33” value ([4]; 10 mg/g suspension (0.5 mg/dose)) was “one of ten”. For the same compound, the “Mortality (animals found dead or euthanized prior to study completion/number of animals in group)” value ([4]; 10 mg/g, 0.5 mg/dose) was 1/10^(4), the “Levels of PGE2 in aqueous humor, Mean” value (Prostaglandin E2 (PGE2); 0.1% topical) was 1.452 ng/mL and the “Levels of PGE2 in aqueous humor, Mean” value (Prostaglandin E2 (PGE2); 0.5% topical) was 1.384 ng/mL. For the same compound, the “Levels of PGE2 in aqueous humor, Mean” value (Prostaglandin E2 (PGE2); 1% topical) was 2.168 ng/mL, the “Protein levels in aqueous humor, Mean” value (protein in aqueous humor; 0.1% topical) was 33.667 mg/mL and the “Protein levels in aqueous humor (raw data)” value (protein in aqueous humor; 0.5% topical, samples collected at the second paracentesis, single eyes, listed as BOL) was 33.98 mg/mL and 33.65 mg/mL and 19.99 mg/mL and 27.11 mg/mL and 19.72 mg/mL and 36.35 mg/mL and 27.71 mg/mL and 32.24 mg/mL. For the same compound, the “Protein levels in aqueous humor, Mean” value (protein in aqueous humor; 0.5% topical) was 28.844 mg/mL and the “Protein levels in aqueous humor, Mean” value (protein in aqueous humor; 1% topical) was 21.435 mg/mL.
